{"source": "patent US20100048400A1", "about": "“HERBICIDE COMBINATION” (BAYER CROPSCIENCE AG, priority 2007, published 2010)", "assay_type_in_all_cases": "in vivo", "conditions_in_all_cases": "after four weeks, 0=no damage 100=complete damage", "key": {"[1]": {"system": "Setaria viridis", "assay": "Post-emergence action against weeds, Example 2: greenhouse, visual scoring of damage", "protocol": "(§1) The plant species listed below were sown in Jiffy pots and cultivated in a greenhouse at a day/night rhythm of 22° C./14° C. At the 2-4-leaf stage, the plants were then treated with an aqueous solution of the compounds in question at the stated dosages. After four weeks, the results were scored visually using the following scheme: 0=no damage 100=complete damage AS/ha=active substance/hectare"}, "[2]": {"system": "Digitaria sanguinalis", "assay": "Post-emergence action against weeds, Example 2: greenhouse, visual scoring of damage", "protocol": "as §1"}, "[3]": {"system": "Abutilon theophrasti", "assay": "Post-emergence action against weeds, Example 3: greenhouse, visual scoring of damage", "protocol": "as §1"}, "[4]": {"system": "Polygonum convolvulus", "assay": "Post-emergence action against weeds, Example 3: greenhouse, visual scoring of damage", "protocol": "as §1"}, "[5]": {"system": "Polygonum convolvulus", "assay": "Post-emergence action against weeds, Example 2: greenhouse, visual scoring of damage", "protocol": "as §1"}}}
{"smiles": "Cc1ccc2c(c1)[C@H](Nc1nc(N)nc([C@@H](C)F)n1)[C@H](C)C2", "note": "(racemic) [Compound B-44, 2-amino-4-[(1RS,2RS)-2,6-dimethylindan-1-ylamino]-6-[(1RS)-1-fluorethyl]-1,3,5-triazine]", "values": [{"measurement": "Damage SETVI", "setting": "[1]; 13 g of AS/ha", "value": 3}, {"measurement": "Damage SETVI", "setting": "[1]; 25 g of AS/ha", "value": 5}]}
{"smiles": "Cc1ccc2c(c1)[C@H](Nc1nc(N)nc([C@@H](C)F)n1)CC2", "note": "[Compound B-22, 2-amino-4-[(1R)-6-methylindan-1-ylamino]-6-[(1R)-1-fluoroethyl]-1,3,5-triazine]", "values": [{"measurement": "Damage DIGSA", "setting": "[2]; 13 g of AS/ha", "value": 24}, {"measurement": "Damage DIGSA", "setting": "[2]; 25 g of AS/ha", "value": 55}]}
{"smiles": "Cc1ccc2c(c1)[C@H](Nc1nc(N)nc([C@@H](C)F)n1)[C@@H](C)C2", "note": "[Compound B-47, 2-amino-4-[(1R,2S)-2,6-dimethylindan-1-ylamino]-6-[(1R)-1-fluoroethyl]-1,3,5-triazine]", "values": [{"measurement": "Damage ABUTH", "setting": "[3]; 13 g of AS/ha", "value": 5}, {"measurement": "Damage ABUTH", "setting": "[3]; 25 g of AS/ha", "value": 15}, {"measurement": "Damage POLCO", "setting": "[4]; 13 g of AS/ha", "value": 0}, {"measurement": "Damage POLCO", "setting": "[4]; 25 g of AS/ha", "value": 0}, {"measurement": "Damage POLCO", "setting": "[5]; 13 g of AS/ha", "value": 0}, {"measurement": "Damage POLCO", "setting": "[5]; 25 g of AS/ha", "value": 0}]}
